Laboratory results as given in publication doi:10.1101/2020.06.11.145995v1 (biorxiv, 2020).

Target: T1, C202S (C218S) mutant MKK7 kinase domain (Homo sapiens, UniProt O14733, C202S)
T1 sequence (O14733 1-419 C202S): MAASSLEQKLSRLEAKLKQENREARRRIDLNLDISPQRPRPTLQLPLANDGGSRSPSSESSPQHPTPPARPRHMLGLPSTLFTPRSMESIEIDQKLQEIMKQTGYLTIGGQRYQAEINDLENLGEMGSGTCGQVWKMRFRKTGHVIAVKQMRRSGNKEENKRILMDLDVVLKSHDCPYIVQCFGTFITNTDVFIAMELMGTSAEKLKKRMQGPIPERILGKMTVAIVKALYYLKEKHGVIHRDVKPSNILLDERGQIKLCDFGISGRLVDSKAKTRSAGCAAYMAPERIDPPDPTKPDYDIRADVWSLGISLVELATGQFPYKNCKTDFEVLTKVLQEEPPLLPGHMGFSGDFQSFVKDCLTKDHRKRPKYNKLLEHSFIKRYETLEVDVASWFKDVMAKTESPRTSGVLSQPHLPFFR
Details: binder

Structure (SMILES) | ΔTm C202S
Cc1cc(Nc2cc(C3CC3)[nH]n2)nc(Nc2ccc(CC#N)cc2)n1 [ASC69] | 4.9 °C
O=C1Nc2ccccc2/C1=C/c1c[nH]cn1 [K00007] | 2.3 °C
Brc1c(Br)c(Br)c2[nH]nnc2c1Br [K00040, TBB (218697)] | 3.3 °C
O=C1NC(=O)C(=Cc2ccc3c(c2)OC(F)(F)O3)S1 [K00828, PI3Kg inhib II (528108)] | 0.6 °C
CCN1CCN(Cc2ccc(NC(=O)c3ccc(C)c(C=Cc4cnc5[nH]ccc5c4OC)c3)cc2C(F)(F)F)CC1 [K03427, HG-6-64-01] | 3.5 °C
